This passage reports IC50 results from patent publication US11208400B2, “Substituted 6-(1H-pyrazol-1-yl)pyrimidin-4-amine derivatives and uses thereof” (Bayer Aktiengesellschaft, priority 2016, dated 2021).

The target in the assay is T1, human Npt2a (Homo sapiens, UniProt Q06495).
T1 construct: expressed in transfected cells
T1 sequence (Q06495 1-639): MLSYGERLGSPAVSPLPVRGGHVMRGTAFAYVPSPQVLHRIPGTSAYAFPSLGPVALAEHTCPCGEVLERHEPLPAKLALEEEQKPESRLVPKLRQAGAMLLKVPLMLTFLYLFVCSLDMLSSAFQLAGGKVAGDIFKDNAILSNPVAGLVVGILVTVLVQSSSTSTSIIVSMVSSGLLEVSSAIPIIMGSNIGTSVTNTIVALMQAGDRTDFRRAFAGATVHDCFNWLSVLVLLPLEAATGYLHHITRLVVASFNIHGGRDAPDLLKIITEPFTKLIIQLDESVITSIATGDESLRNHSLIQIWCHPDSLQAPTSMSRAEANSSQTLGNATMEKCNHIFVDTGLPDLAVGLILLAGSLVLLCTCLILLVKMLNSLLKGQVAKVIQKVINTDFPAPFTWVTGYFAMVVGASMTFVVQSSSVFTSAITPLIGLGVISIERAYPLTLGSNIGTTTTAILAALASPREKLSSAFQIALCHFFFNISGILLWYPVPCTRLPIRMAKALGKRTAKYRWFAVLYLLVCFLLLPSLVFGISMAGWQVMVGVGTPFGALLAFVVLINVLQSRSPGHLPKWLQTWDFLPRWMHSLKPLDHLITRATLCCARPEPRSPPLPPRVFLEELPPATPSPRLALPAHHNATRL
Description: Npt2a activity cell based assay, membrane potential dye, CHO T-REx hNpt2a cells. The settings on record: doxycycline-induced, depolarization by sodium phosphate influx, average or median values if tested more than once. Summed up: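 Cells were doxycycline-induced CHO T-REx hNpt2a, dye-loaded and pretreated 5 min at RT with 1 nM–50 μM compound in Na-free pH 7.4 buffer. IC50 was fit to the post/pre-trigger fluorescence ratio.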
For orientation: IC50 means the concentration that gives 50% inhibition. A low value points to inhibition by little substance. `Cc1nn(-c2cc(Nc3c(C)c(-c4ccc(C#N)cc4)nn3CC3CC3)ncn2)c(C)c1C#N` [Example 352, 1-(6-{[3-(4-cyanophenyl)-1-(cyclopropylmethyl)-4-methyl-1H-pyrazol-5-yl]amino}pyrimidin-4-yl)-3,5-dimethyl-1H-pyrazole-4-carbonitrile] returned an IC50 of 25 nM. In other words, the double-digit nanomolar range. In turn, `Cc1nn(-c2cc(Nc3nn(C)c(-c4ccc(F)cc4F)c3Cl)ncn2)c2ccccc12` [Example 57, N-[4-chloro-5-(2,4-difluorophenyl)-1-methyl-1H-pyrazol-3-yl]-6-(3-methyl-1H-indazol-1-yl)pyrimidin-4-amine] returned an IC50 of 117 nM. Compound `Cc1cc(C(F)F)n(-c2cc(Nc3c(C)c(-c4ccc(C(F)(F)F)cc4)nn3CC3CC3)ncn2)n1` [Example 307, N-{1-(cyclopropylmethyl)-4-methyl-3-[4-(trifluoromethyl)phenyl]-1H-pyrazol-5-yl}-6-[5-(difluoromethyl)-3-methyl-1H-pyrazol-1-yl]pyrimidin-4-amine] came in with an IC50 of 560 nM.

As to `Cc1nn(-c2cc(Nc3nn(C)c(-c4ccc(F)cc4)c3OC(F)F)ncn2)c(C)c1Cl` [Example 413, 6-(4-chloro-3,5-dimethyl-1H-pyrazol-1-yl)-N-[4-(difluoromethoxy)-5-(4-fluorophenyl)-1-methyl-1H-pyrazol-3-yl]pyrimidin-4-amine], the IC50 turned out to be 4 nM. Compared with the last compound, the IC50 is about 140-fold lower. Next, `CC(=O)Oc1c(C)nn(-c2cc(Nc3c(C)c(-c4ccc(F)cc4)nn3CC3CC3)ncn2)c1C` [Example 497, 1-(6-{[1-(cyclopropylmethyl)-3-(4-fluorophenyl)-4-methyl-1H-pyrazol-5-yl]amino}pyrimidin-4-yl)-3,5-dimethyl-1H-pyrazol-4-yl acetate]: 3 nM; `Cc1nn(-c2cc(Nc3c(C)c(-c4ccc(C(F)F)cc4)nn3CC3CC3)ncn2)c(C)c1C(O)C1CC1` (single isomer, unassigned) [Example 496, Cyclopropyl {1-[6-({1-(cyclopropylmethyl)-3-[4-(difluoromethyl)phenyl]-4-methyl-1H-pyrazol-5-yl}amino)pyrimidin-4-yl]-3,5-dimethyl-1H-pyrazol-4-yl}methanol]: 230 nM.

Take `CC(=O)c1c(C)nn(-c2cc(Nc3c(C)nn(-c4ccc(C#N)cc4)c3C)ncn2)c1C` [Example 451, 4-(4-{[6-(4-acetyl-3,5-dimethyl-1H-pyrazol-1-yl)pyrimidin-4-yl]amino}-3,5-dimethyl-1H-pyrazol-1-yl)benzonitrile]: half-maximal inhibition (IC50) was put at 78 nM.

In turn, `Cc1nn(-c2cc(Nc3[nH]nc(-c4ccc(C#N)cc4)c3C)ncn2)c(C)c1F` [Example 266, 4-(5-{[6-(4-fluoro-3,5-dimethyl-1H-pyrazol-1-yl)pyrimidin-4-yl]amino}-4-methyl-1H-pyrazol-3-yl)benzonitrile] displayed a half-inhibitory concentration (IC50) of 410 nM. For `CC(=O)c1c(C)nn(-c2cc(Nc3c(C)c(-c4ccc(C#N)cc4)nn3C)ncn2)c1C` [Example 337, 4-(5-{[6-(4-acetyl-3,5-dimethyl-1H-pyrazol-1-yl)pyrimidin-4-yl]amino}-1,4-dimethyl-1H-pyrazol-3-yl)benzonitrile], the IC50 turned out to be 66 nM. Turning to `CCc1c(-c2ccc(C#N)cc2)nn(CC2CC2)c1Nc1cc(-n2nc(C)c(C(C)=O)c2C)ncn1` [Example 202, 4-[5-{[6-(4-acetyl-3,5-dimethyl-1H-pyrazol-1-yl)pyrimidin-4-yl]amino}-1-(cyclopropylmethyl)-4-ethyl-1H-pyrazol-3-yl]benzonitrile], the midpoint of inhibition, the IC50, lay at 13 nM.

As for `Cc1nn(-c2cc(Nc3nn(C)c(-c4ccc(F)cc4)c3C)ncn2)c(C)c1C#N` [Example 348, 1-(6-{[5-(4-fluorophenyl)-1,4-dimethyl-1H-pyrazol-3-yl]amino}pyrimidin-4-yl)-3,5-dimethyl-1H-pyrazole-4-carbonitrile], the IC50 is 15 nM.
